In patent publication US9890152B2 (Genentech, Inc., priority 2012, dated 2018):
Where “and” joins values, the source holds several entries; their conditions need not be identical. Equal entries are not always repeated. Structures can show the parent of a compound that is named as a salt.

The compounds below were run against T1, EGFR del746-750 T790M (Homo sapiens, UniProt P00533, DEL746-750/T790M) (assay: EGFR del746-750 T790M biochemical assay (Caliper mobility shift)). Details: 5 μM ATP, 30 min, room temperature; apparent Ki (Morrison) converted by Cheng-Prusoff, Km of ATP 2.1 μM; read-out: EGFR(T790M/d746-750) Ki.
T1 construct: purchased Carna Biosciences 08-528
T1 sequence (P00533 with tags, fused parts or gaps DEL746-750/T790M limits assumed): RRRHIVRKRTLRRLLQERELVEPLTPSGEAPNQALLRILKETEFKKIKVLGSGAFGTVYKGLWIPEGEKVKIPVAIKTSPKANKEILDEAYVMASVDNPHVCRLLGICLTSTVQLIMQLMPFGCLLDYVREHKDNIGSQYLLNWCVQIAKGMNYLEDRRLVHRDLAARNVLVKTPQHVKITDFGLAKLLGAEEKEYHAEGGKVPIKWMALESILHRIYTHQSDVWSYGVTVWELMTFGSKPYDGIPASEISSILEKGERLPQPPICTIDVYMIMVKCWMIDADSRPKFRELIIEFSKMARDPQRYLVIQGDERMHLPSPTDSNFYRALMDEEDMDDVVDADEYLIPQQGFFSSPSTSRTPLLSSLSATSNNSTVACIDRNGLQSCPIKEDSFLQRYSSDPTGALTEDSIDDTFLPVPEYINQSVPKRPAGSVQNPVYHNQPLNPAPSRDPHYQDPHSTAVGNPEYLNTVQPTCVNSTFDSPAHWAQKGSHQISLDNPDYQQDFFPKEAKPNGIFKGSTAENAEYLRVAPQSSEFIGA

`CC(C)n1cnc2cnc(Nc3ccnc(NCC(C)(C)C(N)=O)n3)cc21` [Example 85, 3-(4-(1-isopropyl-1H-imidazo[4,5-c]pyridin-6-ylamino)pyrimidin-2-ylamino)-2,2-dimethylpropanamide] and `Cc1nc2cnc(Nc3ccnc(-c4cn(C)nc4N)n3)cc2n1C(C)C` [Example 363, N-(2-(3-Amino-1-methyl-1H-pyrazol-4-yl)pyrimidin-4-yl)-1-isopropyl-2-methyl-1H-imidazo[4,5-c]pyridin-6-amine] are within 1.5-fold of each other in Ki: 20.8 nM for the first, 31 nM for the second.

Compared with `Cc1nc2cnc(Nc3ccnc(-c4cnn(S(=O)(=O)N(C)C)c4)n3)cc2n1C(C)C` [Example 397, 4-(4-((1-isopropyl-2-methyl-1H-imidazo[4,5-c]pyridin-6-yl)amino)pyrimidin-2-yl)-N,N-dimethyl-1H-pyrazole-1-sulfonamide], `Cc1nc2cnc(Nc3ccnc(-c4cnn(S(=O)(=O)C(C)C)c4)n3)cc2n1C(C)C` [Example 409, 1-isopropyl-N-(2-(1-(isopropylsulfonyl)-1H-pyrazol-4-yl)pyrimidin-4-yl)-2-methyl-1H-imidazo[4,5-c]pyridin-6-amine] is 7.4-fold lower in Ki: 14.5 nM for the first, 1.97 nM for the second. The second binds more tightly here.

`C[C@H](n1c(CO)nc2cnc(Nc3ccnc(N4CC[C@@H](O)[C@@H](F)C4)n3)cc21)C(F)(F)F` [Example 666] and `C[C@H](n1c(CO)nc2cnc(Nc3ccnc(N4CC[C@H](O)[C@H](F)C4)n3)cc21)C(F)(F)F` [Example 667] are within 1.5-fold of each other in Ki: 7.26 nM for the first, 5.65 nM for the second.

`CC(CC1CC1)n1c(CO)nc2cnc(Nc3ccnc(-c4cnn(S(=O)(=O)C5CC5)c4)n3)cc21` (centres unmarked) [Example 488, (1-(1-cyclopropylpropan-2-yl)-6-(2-(1-(cyclopropylsulfonyl)-1H-pyrazol-4-yl)pyrimidin-4-ylamino)-1H-imidazo[4,5-c]pyridin-2-yl)methanol] and `CC(C)n1c(CO)nc2cnc(Nc3ccnc(-c4cnn(S(=O)(=O)C5CC5)c4)n3)cc21` [Example 272, {6-[2-(1-Cyclopropanesulfonyl-1H-pyrazol-4-yl)pyrimidin-4-ylamino]-1-isopropyl-1H-imidazo[4,5-c]pyridin-2-yl}methanol] are within 1.5-fold of each other in Ki: 2.17 nM for the first, 2.12 nM for the second.

Going from `COC1CCN(c2nccc(Nc3cc4c(cn3)c(-c3cnn(CC(N)=O)c3)cn4C(C)C)n2)CC1` [Example 410, 2-(4-(1-isopropyl-6-((2-(4-methoxypiperidin-1-yl)pyrimidin-4-yl)amino)-1H-pyrrolo[3,2-c]pyridin-3-yl)-1H-pyrazol-1-yl)acetamide] to `COC1CCN(c2nccc(Nc3cc4c(cn3)c(-c3ccn(CC(N)=O)n3)cn4C(C)C)n2)CC1` [Example 411, 2-(3-(1-isopropyl-6-((2-(4-methoxypiperidin-1-yl)pyrimidin-4-yl)amino)-1H-pyrrolo[3,2-c]pyridin-3-yl)-1H-pyrazol-1-yl) acetamide], the Ki falls from 4.86 nM to 3.13 nM (1.6-fold).

First: CC(n1cc(C(=O)NC2CCOCC2)c2cnc(Nc3ccnc(N4CC[C@@H](O)[C@@H](F)C4)n3)cc21)C(F)(F)F (single isomer, unassigned) [Example 640]
Second: CCC(C)n1cc(C(=O)NC2CCOCC2)c2cnc(Nc3ccnc(N4C[C@@H](F)[C@@H](O)C(C)(C)C4)n3)cc21 (mixture of isomers) [Example 646, 1-sec-Butyl-6-(2-((±)-cis-5-fluoro-4-hydroxy-3,3-dimethylpiperidin-1-yl)pyrimidin-4-ylamino)-N-(tetrahydro-2H-pyran-4-yl)-1H-pyrrolo[3,2-c]pyridine-3-carboxamide]
The Ki of the first is 4.1-fold higher: 15.3 nM for the first, 3.72 nM for the second. The second binds more tightly here.

First: COC1CCN(c2nccc(Nc3cc4c(cn3)c(C(=O)NCCO)cn4C(C)C)n2)CC1 [Example 121, N-(2-hydroxyethyl)-1-isopropyl-6-((2-(4-methoxypiperidin-1-yl)pyrimidin-4-yl)amino)-1H-pyrrolo[3,2-c]pyridine-3-carboxamide]
Second: COC1CCN(c2nccc(Nc3cc4c(cn3)c(-c3cn[nH]c3)cn4C(C)C)n2)CC1 [Example 401, 1-isopropyl-N-(2-(4-methoxypiperidin-1-yl)pyrimidin-4-yl)-3-(1H-pyrazol-4-yl)-1H-pyrrolo[3,2-c]pyridin-6-amine]
The Ki of the first is 9.2-fold higher: 24.4 nM for the first, 2.66 nM for the second.

`Cc1nc2cnc(Nc3ccnc(N4CC[C@@H](F)C4)n3)cc2n1C(C)C` [Example 593, [2-((R)-3-Fluoropyrrolidin-1-yl)pyrimidin-4-yl]-(1-isopropyl-2-methyl-1H-imidazo[4,5-c]pyridin-6-yl)amine] and `Cc1nc2cnc(Nc3ccnc(N4CCCC(F)C4)n3)cc2n1C(C)C` (centres unmarked) [Example 590, [2-(3-Fluoropiperidin-1-yl)pyrimidin-4-yl]-(1-isopropyl-2-methyl-1H-imidazo[4,5-c]pyridin-6-yl)amine] are within 1.5-fold of each other in Ki: 118 nM for the first, 93.5 nM for the second.

Going from `Cc1nc2cnc(Nc3ccnc(N4CCC(O)C(F)(F)C4)n3)cc2n1C(C)C` (racemic) [Example 507, (±)-3,3-Difluoro-1-(4-((1-isopropyl-2-methyl-1H-imidazo[4,5-c]pyridin-6-yl)amino)pyrimidin-2-yl)piperidin-4-ol] to `Cc1nc2cnc(Nc3ccnc(N4CC[C@H](O)C4)n3)cc2n1C(C)C` [Example 681], the Ki rises from 21.6 nM to 189 nM (8.8-fold).

Compared with `C[C@H](O)c1nc2cnc(Nc3ccnc(N4CC[C@@H](O)[C@@H](F)C4)n3)cc2n1[C@H](C)C(F)(F)F` [Example 689], `C[C@@H](O)c1nc2cnc(Nc3ccnc(N4CCC(O)C(F)C4)n3)cc2n1[C@H](C)C(F)(F)F` (stereo partly drawn) [Example 542, 3-Fluoro-1-{4-[2-((R)-1-hydroxyethyl)-1-((R)-2,2,2-trifluoro-1-methylethyl)-1H-imidazo[4,5-c]pyridin-6-ylamino]pyrimidin-2-yl}-piperidin-4-ol] is 2.3-fold lower in Ki: 230 nM for the first, 101 nM for the second.

`Cc1cc(-c2cn(C(C)C)c3cc(Nc4ccnc(-c5cnn(S(=O)(=O)C6CC6)c5)n4)ncc23)nn1CCO` [Example 435, 2-(3-(6-(2-(1-(cyclopropylsulfonyl)-1H-pyrazol-4-yl)pyrimidin-4-ylamino)-1-isopropyl-1H-pyrrolo[3,2-c]pyridin-3-yl)-5-methyl-1H-pyrazol-1-yl)ethanol] and `CC(C)n1cc(-c2cnn(CC(N)=O)c2)c2cnc(Nc3ccnc(-c4cnn(S(=O)(=O)C5CC5)c4)n3)cc21` [Example 331, 2-(4-(6-((2-(1-(Cyclopropylsulfonyl)-1H-pyrazol-4-yl)pyrimidin-4-yl)amino)-1-isopropyl-1H-pyrrolo[3,2-c]pyridin-3-yl)-1H-pyrazol-1-yl)acetamide] are within 1.5-fold of each other in Ki: 2.36 nM for the first, 2.83 nM for the second.

Going from `CC[C@@H](C)n1c([C@@H](C)O)nc2cnc(Nc3ccnc(-c4cnn(S(=O)(=O)CC)c4)n3)cc21` [Example 281, (R)-1-{1-((R)-sec-Butyl)-6-[2-(1-ethanesulfonyl-1H-pyrazol-4-yl)-pyrimidin-4-ylamino]-1H-imidazo[4,5-c]pyridin-2-yl}ethanol] to `COCCC(C)(C)n1c(CO)nc2cnc(Nc3ccnc(-c4cnn(S(=O)(=O)C5CC5)c4)n3)cc21` [Example 695], the Ki rises from 2.37 nM to 68.8 nM (29-fold).

First: CCC(C)n1cc(C(=O)NC2COCCOC2)c2cnc(Nc3ccnc(-c4cnn(S(=O)(=O)C5CC5)c4)n3)cc21 (centres unmarked) [Example 700]
Second: CC(C)n1cc(-c2cnn(C3COC3)c2)c2cnc(Nc3ccnc(-c4cnn(S(=O)(=O)C5CC5)c4)n3)cc21 [Example 441, N-(2-(1-(cyclopropylsulfonyl)-1H-pyrazol-4-yl)pyrimidin-4-yl)-1-isopropyl-3-(1-(oxetan-3-yl)-1H-pyrazol-4-yl)-1H-pyrrolo[3,2-c]pyridin-6-amine]
The Ki of the first is 2.1-fold higher: 1.65 nM for the first, 0.8 nM for the second.

First: COC1CCN(c2nccc(Nc3cc4c(cn3)nc(CN(C)C)n4C(C)C)n2)CC1 [Example 9, (2-Dimethylaminomethyl-1-isopropyl-1H-imidazo[4,5-c]pyridin-6-yl)-[2-(4-methoxypiperidin-1-yl)pyrimidin-4-yl]amine formate salt]
Second: COC1CCN(c2nccc(Nc3cc4c(cn3)nc(C)n4C(C)C3CC3)n2)CC1 (centres unmarked) [Example 268, [1-(1-Cyclopropylethyl)-2-methyl-1H-imidazo[4,5-c]pyridin-6-yl]-[2-(4-methoxypiperidin-1-yl)pyrimidin-4-yl]amine]
The Ki of the first is 61-fold higher: 417 nM for the first, 6.88 nM for the second. The second binds more tightly here.

Compared with `Cc1nc2cnc(Nc3ccnc(N4CCC(OC(F)F)CC4)n3)cc2n1C(C)C` [Example 549, [2-(4-Difluoromethoxypiperidin-1-yl)pyrimidin-4-yl]-(1-isopropyl-2-methyl-1H-imidazo[4,5-c]pyridin-6-yl)amine], `CO[C@H]1CN(c2nccc(Nc3cc4c(cn3)nc(C)n4C(C)C)n2)CC[C@@H]1O` (racemic) [Example 509, (±)-1-(4-((1-Isopropyl-2-methyl-1H-imidazo[4,5-c]pyridin-6-yl)amino)pyrimidin-2-yl)-3-methoxypiperidin-4-ol] is 2.4-fold higher in Ki: 143 nM for the first, 348 nM for the second.

First: Cc1nc2cnc(Nc3ccnc(N4CCC5(OCCO5)C(F)C4)n3)cc2n1C(C)C (centres unmarked) [Example 653]
Second: CO[C@@H]1CCN(c2nccc(Nc3cc4c(cn3)nc(CO)n4C(C)C)n2)C[C@H]1C [Example 699]
The Ki of the first is 8.9-fold lower: 34.3 nM for the first, 305 nM for the second. The first binds more tightly here.

Going from `CO[C@@H]1CCN(c2nccc(Nc3cc4c(cn3)nc(CO)n4C(C)C)n2)C[C@@H]1C` (racemic) [Example 632, (1-Isopropyl-6-(2-((±)-(cis)-4-methoxy-3-methylpiperidin-1-yl)pyrimidin-4-ylamino)-1H-imidazo[4,5-c]pyridin-2-yl)methanol] to `CC(C)n1c(CO)nc2cnc(Nc3ccnc(N4CC5CC4C5)n3)cc21` [Example 692], the Ki falls from 326 nM to 140 nM (2.3-fold). The second binds more tightly here.

Going from `Cc1nc2cnc(Nc3ccnc(-c4cnc(N(C)C)s4)n3)cc2n1C(C)C` [Example 317, [2-(2-Dimethylaminothiazol-5-yl)pyrimidin-4-yl]-(1-isopropyl-2-methyl-1H-imidazo[4,5-c]pyridin-6-yl)amine] to `CC(C)n1c(CO)nc2cnc(Nc3ccnc(N4CCCCC4CCO)n3)cc21` (centres unmarked) [Example 668], the Ki rises from 2.97 nM to 451 nM (150-fold). The first binds more tightly here.

`CCC(C)n1cc(C(=O)NC2CCN(C3COC3)CC2)c2cnc(Nc3ccnc(N4CC[C@H](O)[C@H](F)C4)n3)cc21` (mixture of isomers) [Example 389, 1-(sec-butyl)-6-((2-((3R,4S)-3-fluoro-4-hydroxypiperidin-1-yl)pyrimidin-4-yl)amino)-N-(1-(oxetan-3-yl)piperidin-4-yl)-1H-pyrrolo[3,2-c]pyridine-3-carboxamide] showed a Ki of 4.03 nM.

In the case of `CC(C)n1c(CO)nc2cnc(Nc3ccnc(N4C[C@@H](F)[C@@H](O)C(C)(C)C4)n3)cc21` [Example 650], the Ki is reported as 92 nM and 20 nM.
